Holding throughout (assay): Z'-LYTE kinase panel
Holding throughout (format): biochemical

Assay [1] deals with T1, HCK (Homo sapiens, UniProt P08631).
T1 construct: purchased ThermoFisher (SelectScreen, Z'-LYTE)
The procedure, abridged:
(§1)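 Percent inhibition measured at 10 µM compound using the standard Z′-LYTE protocol, as part of a 225-kinase standard panel screen.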

Assay [2] addresses T2, TAOK2 (TAO1) (Homo sapiens, UniProt Q9UL54).
T2 construct: purchased ThermoFisher (SelectScreen, Z'-LYTE)
T2 sequence (Q9UL54 1-1235): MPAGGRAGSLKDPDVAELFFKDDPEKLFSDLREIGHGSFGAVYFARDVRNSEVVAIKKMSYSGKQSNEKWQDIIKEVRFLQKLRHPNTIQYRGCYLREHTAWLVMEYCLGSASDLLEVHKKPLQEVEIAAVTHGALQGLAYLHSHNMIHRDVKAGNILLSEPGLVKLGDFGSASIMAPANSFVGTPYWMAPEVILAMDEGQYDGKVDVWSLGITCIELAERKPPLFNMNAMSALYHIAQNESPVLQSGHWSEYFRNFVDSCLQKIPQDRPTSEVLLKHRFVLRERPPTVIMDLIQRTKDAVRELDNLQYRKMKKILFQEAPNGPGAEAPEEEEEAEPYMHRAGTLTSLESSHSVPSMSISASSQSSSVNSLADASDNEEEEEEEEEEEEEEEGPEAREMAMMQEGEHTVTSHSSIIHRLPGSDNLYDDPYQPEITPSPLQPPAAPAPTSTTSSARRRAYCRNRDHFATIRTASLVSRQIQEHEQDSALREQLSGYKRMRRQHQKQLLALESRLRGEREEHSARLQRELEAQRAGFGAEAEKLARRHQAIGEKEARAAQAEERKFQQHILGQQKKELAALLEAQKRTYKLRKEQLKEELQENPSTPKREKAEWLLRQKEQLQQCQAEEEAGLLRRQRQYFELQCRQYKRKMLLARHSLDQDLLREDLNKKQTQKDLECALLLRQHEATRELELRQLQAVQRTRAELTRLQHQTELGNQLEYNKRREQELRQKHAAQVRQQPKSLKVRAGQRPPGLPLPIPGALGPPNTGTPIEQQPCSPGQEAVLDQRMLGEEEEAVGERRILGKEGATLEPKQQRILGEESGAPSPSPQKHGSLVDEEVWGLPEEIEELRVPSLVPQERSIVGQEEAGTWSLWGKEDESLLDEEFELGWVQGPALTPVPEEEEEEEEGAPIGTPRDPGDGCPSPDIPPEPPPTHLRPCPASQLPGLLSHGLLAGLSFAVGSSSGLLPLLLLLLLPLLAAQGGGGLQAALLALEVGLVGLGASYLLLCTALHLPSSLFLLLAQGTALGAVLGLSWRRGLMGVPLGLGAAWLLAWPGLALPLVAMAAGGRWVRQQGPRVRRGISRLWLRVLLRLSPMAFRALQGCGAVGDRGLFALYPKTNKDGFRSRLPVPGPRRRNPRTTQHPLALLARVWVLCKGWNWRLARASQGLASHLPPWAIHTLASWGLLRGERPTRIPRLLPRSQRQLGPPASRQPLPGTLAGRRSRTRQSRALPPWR
The procedure, abridged: as §1

In assay [3] the target is T3, SRMS (Srm) (Homo sapiens, UniProt Q9H3Y6).
T3 construct: purchased ThermoFisher (SelectScreen, Z'-LYTE)
The procedure, abridged:
as §1

Assay [4] concerns the target T4, FGR (Homo sapiens, UniProt P09769).
T4 construct: purchased ThermoFisher (SelectScreen, Z'-LYTE)
Summed up: as §1

Assay [5] deals with T5, SNF1LK2 (Homo sapiens, UniProt Q9H0K1).
T5 construct: purchased ThermoFisher (SelectScreen, Z'-LYTE)
The procedure, abridged:
as §1

Assay [6] addresses T6, PAK7 (KIAA1264) (Homo sapiens, UniProt Q9P286).
T6 construct: purchased ThermoFisher (SelectScreen, Z'-LYTE)
The procedure, abridged:
as §1

Assay [7] has as its target T7, CSNK2A1 (CK2 alpha 1) (Homo sapiens, UniProt P68400).
T7 construct: purchased ThermoFisher (SelectScreen, Z'-LYTE)
The procedure, abridged: as §1

Assay [8] concerns the target T8, MAPK1 (ERK2) (Homo sapiens, UniProt P28482).
T8 construct: purchased ThermoFisher (SelectScreen, Z'-LYTE)
The procedure, abridged: as §1

Assay [9] deals with T9, STK25 (YSK1) (Homo sapiens, UniProt O00506).
T9 construct: purchased ThermoFisher (SelectScreen, Z'-LYTE)
The procedure, abridged:
as §1

The target of assay [10] is T10, MAP2K2 (MEK2) (Homo sapiens, UniProt P36507).
T10 construct: purchased ThermoFisher (SelectScreen, Z'-LYTE)
The following applies: 10 µM compound; ATP 100. The procedure, abridged: as §1

Assay [11] addresses T11, STK24 (MST3) (Homo sapiens, UniProt Q9Y6E0).
T11 construct: purchased ThermoFisher (SelectScreen, Z'-LYTE)
Summed up:
as §1

Assay [12] concerns the target T12, PRKCB2 (PKC beta II) (Homo sapiens, UniProt P05771).
T12 construct: purchased ThermoFisher (SelectScreen, Z'-LYTE)
The procedure, abridged:
as §1

The target of assay [13] is T13, HIPK2 (Homo sapiens, UniProt Q9H2X6).
T13 construct: purchased ThermoFisher (SelectScreen, Z'-LYTE)
Summed up: as §1

The target in assay [14] is T14, DYRK4 (Homo sapiens, UniProt Q9NR20).
T14 construct: purchased ThermoFisher (SelectScreen, Z'-LYTE)
T14 sequence (Q9NR20 1-520): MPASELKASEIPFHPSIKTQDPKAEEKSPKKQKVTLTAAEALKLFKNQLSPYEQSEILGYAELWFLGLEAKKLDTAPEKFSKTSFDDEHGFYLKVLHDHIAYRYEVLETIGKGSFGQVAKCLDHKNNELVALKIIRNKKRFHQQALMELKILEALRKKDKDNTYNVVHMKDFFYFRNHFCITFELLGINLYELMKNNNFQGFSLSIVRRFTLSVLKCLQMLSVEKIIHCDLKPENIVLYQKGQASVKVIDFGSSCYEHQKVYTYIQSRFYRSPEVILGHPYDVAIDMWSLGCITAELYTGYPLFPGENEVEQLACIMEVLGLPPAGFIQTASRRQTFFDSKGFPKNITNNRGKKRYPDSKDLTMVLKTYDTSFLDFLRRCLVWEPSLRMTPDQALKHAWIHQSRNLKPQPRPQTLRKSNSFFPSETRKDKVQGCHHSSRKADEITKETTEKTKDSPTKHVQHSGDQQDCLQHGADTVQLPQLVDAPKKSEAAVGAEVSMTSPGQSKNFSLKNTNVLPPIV
Summed up:
as §1

T12 sequence (P05771 1-673 isoform P05771-2): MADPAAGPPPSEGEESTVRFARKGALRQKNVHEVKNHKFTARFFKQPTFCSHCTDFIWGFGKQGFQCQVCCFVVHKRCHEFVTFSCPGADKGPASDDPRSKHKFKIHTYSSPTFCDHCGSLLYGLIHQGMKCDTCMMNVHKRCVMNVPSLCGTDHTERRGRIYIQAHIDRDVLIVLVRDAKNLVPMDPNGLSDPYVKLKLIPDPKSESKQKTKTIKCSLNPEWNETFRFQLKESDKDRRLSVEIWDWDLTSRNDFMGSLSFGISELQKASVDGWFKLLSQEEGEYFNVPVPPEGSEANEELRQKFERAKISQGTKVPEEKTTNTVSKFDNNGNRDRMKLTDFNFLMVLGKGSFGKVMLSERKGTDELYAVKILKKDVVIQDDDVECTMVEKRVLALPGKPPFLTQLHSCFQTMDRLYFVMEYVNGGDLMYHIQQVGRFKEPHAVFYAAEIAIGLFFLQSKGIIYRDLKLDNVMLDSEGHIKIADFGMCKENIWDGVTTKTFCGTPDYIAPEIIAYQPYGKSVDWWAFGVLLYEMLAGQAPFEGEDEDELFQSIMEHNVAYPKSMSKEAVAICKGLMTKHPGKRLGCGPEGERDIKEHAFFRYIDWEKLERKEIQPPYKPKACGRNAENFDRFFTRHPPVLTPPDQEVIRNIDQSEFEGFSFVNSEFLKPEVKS
T8 sequence (P28482 whole entry): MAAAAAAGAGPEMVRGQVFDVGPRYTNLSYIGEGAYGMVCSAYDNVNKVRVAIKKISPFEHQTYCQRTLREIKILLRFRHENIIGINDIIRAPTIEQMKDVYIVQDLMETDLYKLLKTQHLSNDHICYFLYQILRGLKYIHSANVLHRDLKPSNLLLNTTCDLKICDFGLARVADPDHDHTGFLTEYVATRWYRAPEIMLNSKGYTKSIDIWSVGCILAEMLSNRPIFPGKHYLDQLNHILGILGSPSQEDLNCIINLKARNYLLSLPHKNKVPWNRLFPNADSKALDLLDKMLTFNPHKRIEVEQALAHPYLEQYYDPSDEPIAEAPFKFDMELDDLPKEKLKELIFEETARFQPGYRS
T6 sequence (Q9P286 whole entry): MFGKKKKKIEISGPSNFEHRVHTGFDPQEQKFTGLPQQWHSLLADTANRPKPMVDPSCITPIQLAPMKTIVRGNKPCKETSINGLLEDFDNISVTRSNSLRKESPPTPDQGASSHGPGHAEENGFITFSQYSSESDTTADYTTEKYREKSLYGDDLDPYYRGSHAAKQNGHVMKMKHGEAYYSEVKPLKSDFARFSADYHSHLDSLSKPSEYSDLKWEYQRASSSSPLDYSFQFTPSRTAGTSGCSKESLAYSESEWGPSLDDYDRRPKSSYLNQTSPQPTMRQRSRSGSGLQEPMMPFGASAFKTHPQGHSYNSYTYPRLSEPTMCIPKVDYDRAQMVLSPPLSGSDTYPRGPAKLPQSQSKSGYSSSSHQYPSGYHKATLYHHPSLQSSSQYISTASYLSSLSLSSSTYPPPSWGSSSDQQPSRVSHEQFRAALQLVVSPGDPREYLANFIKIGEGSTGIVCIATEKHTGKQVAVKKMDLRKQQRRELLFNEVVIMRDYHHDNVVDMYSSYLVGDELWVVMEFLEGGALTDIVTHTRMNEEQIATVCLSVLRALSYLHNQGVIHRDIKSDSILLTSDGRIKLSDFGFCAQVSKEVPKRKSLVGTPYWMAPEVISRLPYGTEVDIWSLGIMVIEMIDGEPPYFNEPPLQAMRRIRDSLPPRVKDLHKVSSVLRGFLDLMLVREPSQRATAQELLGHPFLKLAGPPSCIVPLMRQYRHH
T1 sequence (P08631 whole entry): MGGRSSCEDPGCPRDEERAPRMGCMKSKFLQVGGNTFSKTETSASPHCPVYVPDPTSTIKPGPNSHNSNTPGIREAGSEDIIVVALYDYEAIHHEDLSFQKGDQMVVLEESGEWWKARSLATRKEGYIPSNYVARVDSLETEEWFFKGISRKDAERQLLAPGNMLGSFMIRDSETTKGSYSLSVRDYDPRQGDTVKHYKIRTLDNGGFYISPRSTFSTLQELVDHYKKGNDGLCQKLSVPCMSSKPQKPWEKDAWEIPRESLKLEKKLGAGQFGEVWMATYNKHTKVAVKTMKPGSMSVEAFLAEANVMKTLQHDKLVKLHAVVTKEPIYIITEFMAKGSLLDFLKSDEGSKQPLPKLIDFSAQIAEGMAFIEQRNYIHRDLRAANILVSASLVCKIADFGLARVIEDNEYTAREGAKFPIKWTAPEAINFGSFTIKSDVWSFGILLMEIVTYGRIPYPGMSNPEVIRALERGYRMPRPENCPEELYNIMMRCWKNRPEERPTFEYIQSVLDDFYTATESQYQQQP
T5 sequence (Q9H0K1 whole entry): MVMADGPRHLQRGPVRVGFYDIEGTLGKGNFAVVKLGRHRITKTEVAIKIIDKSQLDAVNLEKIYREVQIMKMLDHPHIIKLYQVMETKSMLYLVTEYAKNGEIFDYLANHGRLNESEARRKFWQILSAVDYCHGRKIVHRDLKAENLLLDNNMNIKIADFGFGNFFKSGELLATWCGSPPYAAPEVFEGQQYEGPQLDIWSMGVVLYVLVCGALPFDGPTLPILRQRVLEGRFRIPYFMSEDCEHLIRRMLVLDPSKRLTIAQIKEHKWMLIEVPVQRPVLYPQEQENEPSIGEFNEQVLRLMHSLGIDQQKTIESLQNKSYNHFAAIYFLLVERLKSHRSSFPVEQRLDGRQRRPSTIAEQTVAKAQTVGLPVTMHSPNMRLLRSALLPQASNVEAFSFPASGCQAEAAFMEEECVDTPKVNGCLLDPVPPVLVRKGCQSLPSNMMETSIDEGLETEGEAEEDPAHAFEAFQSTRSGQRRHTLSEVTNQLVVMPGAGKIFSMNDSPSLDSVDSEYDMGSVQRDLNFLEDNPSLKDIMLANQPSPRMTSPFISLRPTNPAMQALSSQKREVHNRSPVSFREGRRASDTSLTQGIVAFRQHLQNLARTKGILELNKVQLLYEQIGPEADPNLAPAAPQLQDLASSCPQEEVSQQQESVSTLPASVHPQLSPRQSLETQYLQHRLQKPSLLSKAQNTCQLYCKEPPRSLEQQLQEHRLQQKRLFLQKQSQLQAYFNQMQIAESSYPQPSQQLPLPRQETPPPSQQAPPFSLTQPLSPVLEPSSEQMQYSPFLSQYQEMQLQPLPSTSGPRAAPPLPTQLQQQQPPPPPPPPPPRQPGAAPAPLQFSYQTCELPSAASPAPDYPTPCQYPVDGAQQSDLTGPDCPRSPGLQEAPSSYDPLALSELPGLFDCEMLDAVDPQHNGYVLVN
T13 sequence (Q9H2X6 whole entry): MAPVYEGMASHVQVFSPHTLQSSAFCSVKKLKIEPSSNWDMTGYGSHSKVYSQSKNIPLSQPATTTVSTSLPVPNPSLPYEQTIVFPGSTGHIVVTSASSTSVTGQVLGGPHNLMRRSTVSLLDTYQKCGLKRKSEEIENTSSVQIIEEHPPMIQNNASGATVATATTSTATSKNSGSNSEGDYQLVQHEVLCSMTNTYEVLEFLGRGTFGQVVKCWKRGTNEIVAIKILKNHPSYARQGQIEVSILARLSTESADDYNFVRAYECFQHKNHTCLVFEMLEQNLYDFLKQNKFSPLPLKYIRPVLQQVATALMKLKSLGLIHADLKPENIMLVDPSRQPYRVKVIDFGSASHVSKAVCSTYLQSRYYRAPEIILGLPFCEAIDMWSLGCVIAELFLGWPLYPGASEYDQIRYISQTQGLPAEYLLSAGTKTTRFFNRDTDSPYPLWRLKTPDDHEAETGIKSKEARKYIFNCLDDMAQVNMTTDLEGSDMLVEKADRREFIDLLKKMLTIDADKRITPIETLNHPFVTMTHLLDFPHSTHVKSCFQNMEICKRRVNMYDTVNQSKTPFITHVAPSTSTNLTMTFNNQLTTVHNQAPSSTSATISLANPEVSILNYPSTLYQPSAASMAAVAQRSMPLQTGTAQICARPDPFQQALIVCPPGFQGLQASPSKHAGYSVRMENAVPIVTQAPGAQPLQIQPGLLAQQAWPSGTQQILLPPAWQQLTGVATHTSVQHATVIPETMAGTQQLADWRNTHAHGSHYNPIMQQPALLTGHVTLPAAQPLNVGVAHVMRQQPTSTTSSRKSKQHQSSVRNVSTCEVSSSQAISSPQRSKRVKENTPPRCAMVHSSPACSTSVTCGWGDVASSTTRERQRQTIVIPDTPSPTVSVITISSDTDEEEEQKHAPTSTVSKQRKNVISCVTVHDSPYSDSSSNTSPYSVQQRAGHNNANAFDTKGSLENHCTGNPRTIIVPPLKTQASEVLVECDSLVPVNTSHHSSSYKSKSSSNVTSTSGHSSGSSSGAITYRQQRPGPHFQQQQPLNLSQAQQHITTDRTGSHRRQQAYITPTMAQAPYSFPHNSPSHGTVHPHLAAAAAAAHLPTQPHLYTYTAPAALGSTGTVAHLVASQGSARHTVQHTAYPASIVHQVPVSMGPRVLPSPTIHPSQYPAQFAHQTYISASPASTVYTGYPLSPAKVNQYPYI
T9 sequence (O00506 whole entry): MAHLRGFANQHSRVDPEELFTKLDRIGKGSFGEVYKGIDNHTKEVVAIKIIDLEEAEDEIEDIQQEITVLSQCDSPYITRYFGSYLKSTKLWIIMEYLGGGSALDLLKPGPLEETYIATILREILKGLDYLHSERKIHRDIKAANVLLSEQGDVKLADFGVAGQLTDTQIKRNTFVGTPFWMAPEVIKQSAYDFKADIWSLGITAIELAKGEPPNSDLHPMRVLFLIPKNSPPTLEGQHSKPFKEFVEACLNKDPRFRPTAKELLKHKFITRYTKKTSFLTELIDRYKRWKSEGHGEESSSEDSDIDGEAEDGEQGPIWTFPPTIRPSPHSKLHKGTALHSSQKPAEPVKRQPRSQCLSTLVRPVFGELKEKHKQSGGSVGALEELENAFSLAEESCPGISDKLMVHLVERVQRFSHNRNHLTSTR

Consider `Cc1ncc(-c2nc(Nc3ccc(C(=O)NCCN4CCCCC4)cc3)ncc2F)n1C(C)C` [Compound 3], for which the inhibition at 10 µM in [1] worked out at 48%; in assay [2], 97%; in assay [3], 20%; in [4] it was 90%; in assay [5], 88%; in [6], 71%. Besides, the inhibition at 10 µM in assay [7] came to 40%; in [8], 39%; in assay [9], 72%; in assay [10] it was 94%; in assay [11], 89%; in assay [12], 89%. The figures for the inhibition at 10 µM in [13] and in assay [14] were 93% and 23%, respectively.

For `Cc1cc(Nc2nc(N)nn2C(=O)NC(C)C)ccc1Cl` [Compound 5], the inhibition at 10 µM was 16% in assay [1]; 21% in [2]; 2.26% in [3]; 54% in assay [4]; 74% in assay [5]; 26% in [6]. Besides, the inhibition at 10 µM in assay [7] is 8%; in assay [8] it was 6%; in assay [9], 12%; in [10] it was 21%; in [11], 27%; in assay [12], -12%. Also, the inhibition at 10 µM in assay [13] amounted to 45%; in [14], 5%.

In the case of “XMD8-92 [Compound 2, reference compound]”, in assay [1] (10 µM compound, ATP Km app), the “HCK % Inhibition” value is reported as 14%. Further, the “TAOK2 (TAO1) % Inhibition” value in [2] (10 µM compound, ATP Km app) was found to be 39%. Moreover, the “SRMS (Srm) % Inhibition” value in assay [3] (10 µM compound, ATP Km app) was found to be 21%. Besides, in assay [4] (10 µM compound, ATP Km app), the “FGR % Inhibition” value is listed as 83%. Besides, the “SNF1LK2 % Inhibition” value in assay [5] (10 µM compound, ATP Km app) is 62%. Besides, in assay [6] (10 µM compound, ATP Km app), the “PAK7 (KIAA1264) % Inhibition” value came out at 6%. Further, in [7] (10 µM compound, ATP Km app), the “CSNK2A1 (CK2 alpha 1) % Inhibition” value is 8%. The “MAPK1 (ERK2) % Inhibition” value in assay [8] (10 µM compound, ATP Km app) was 9%. Also, the “STK25 (YSK1) % Inhibition” value in assay [9] (10 µM compound, ATP Km app) is recorded as 9.49%. Besides, the “MAP2K2 (MEK2) % Inhibition” value in assay [10] stood at 24%. In addition, the “STK24 (MST3) % Inhibition” value in assay [11] (10 µM compound, ATP Km app) stood at 30%. In assay [12] (10 µM compound, ATP Km app), the “PRKCB2 (PKC beta II) % Inhibition” value is recorded as 38%. In addition, the “HIPK2 % Inhibition” value in assay [13] (10 µM compound, ATP Km app) was determined as 2%. In [14] (10 µM compound, ATP Km app), the “DYRK4 % Inhibition” value came out at 1.2%.
